Experimental data published in US4229204A, “Trifluoromethylphenyl isoxazolyl benzoates” (Monsanto Company, priority 1978, dated 1980).

Legend:
Format in all cases: in vivo
[1] = test system: mixture of Kentucky Bluegrass, Creeping Red Fescue and Chewings Fescue; assay: Growth regulation of lawn grasses (Table VIII)
Experimental: The compound of Example Number 3 was tested on various lawn grasses as follows. A mixture of Kentucky Bluegrass, Creeping Red Fescue and Chewings Fescue were planted in a good grade of top soil in plastic pots. Seven to ten days after germination, the plants were treated with the active ingredient to which a surfactant had been added by spraying the plants until they were wet with various concentrations.

Bluebell rice = assay: Growth regulation of rice; settings: four-week old rice, 250 ppm, both at 3 weeks and 7 weeks after treatment
Source text: The compound of Example Number 3 was applied to four-week old Bluebell rice at a rate of 250 ppm.

Williams soybeans = assay: Soybean seed yield test (Table V)
Experimental: Additionally, the compound of Example Number 3 was tested as follows.
Williams soybeans were planted on 5.5 inch row spacings. The soybeans were treated at three different stages of early growth (first, second or third trifoliate opening) with a formulation of the compound of Example Number 3 containing 0.25% Tween 20 as a surfactant.

Panicum Spp. = assay: Post-emergent herbicidal test; also: ranges in brackets are in %
Experimental: (§1) The post-emergent tests were conducted as follows:
(§2) The active ingredients are applied in spray form to two or three week old specimens of various plant species. The spray, a solution or wettable powder suspension containing the appropriate rate of active ingredient to give the desired test rate and a surfactant, is applied to the plants.

Sorghum = assay: Post-emergent herbicidal test; also: ranges in brackets are in %
Experimental: as §1, §2

Wheat = assay: Post-emergent herbicidal test; also: ranges in brackets are in %
Experimental: as §1, §2

Hemp Sesbania = assay: Post-emergent herbicidal test; also: ranges in brackets are in %
Experimental: as §1, §2

Crabgrass = assay: Post-emergent herbicidal test; also: ranges in brackets are in %
Experimental: as §1, §2

Sugarbeet = assay: Post-emergent herbicidal test; also: ranges in brackets are in %
Experimental: as §1, §2

Rice = assay: Post-emergent herbicidal test; also: ranges in brackets are in %
Experimental: as §1, §2

Wild Buckwheat = assay: Post-emergent herbicidal test; also: ranges in brackets are in %
Experimental: as §1, §2

Soybean = assay: Post-emergent herbicidal test; also: ranges in brackets are in %
Experimental: as §1, §2

**Q.** For `COC(=O)c1ccccc1-c1cc(-c2cccc(C(F)(F)F)c2)no1` [Example 3, Methyl 2-[3-[3-(Trifluoromethyl)-Phenyl]-5-Isoxazolyl]Benzoate], which Height ([1]; 10 ppm, 3 weeks after treatment) is on record?
**A.** 102 % of Control

**Q.** What about the Height ([1]; 10 ppm, 9 weeks after treatment) of the same molecule?
**A.** 93 % of Control

**Q.** And the Height ([1]; 50 ppm, 3 weeks after treatment)?
**A.** 94 % of Control

**Q.** What about the Height ([1]; 50 ppm, 9 weeks after treatment) of the same molecule?
**A.** 86 % of Control

**Q.** And the Height ([1]; 250 ppm, 3 weeks after treatment)?
**A.** 66 % of Control

**Q.** And the Height ([1]; 250 ppm, 9 weeks after treatment)?
**A.** 57 % of Control

**Q.** And the “Observations compared with the control” value (Bluebell rice)?
**A.** stature reduction and tillering

**Q.** What about the “Seed Yield” value (Williams soybeans; 0.0062 lb/acre, stage of application 2 (untreated 63.9)) of the same molecule?
**A.** 63.6 bu/acre

**Q.** What about the “Seed Yield” value (Williams soybeans; 0.0125 lb/acre, stage of application 1 (untreated 63.9)) of the same molecule?
**A.** 67.4 bu/acre

**Q.** What about the “Seed Yield” value (Williams soybeans; 0.0125 lb/acre, stage of application 2 (untreated 63.9)) of the same molecule?
**A.** 68.2 bu/acre

**Q.** What about the “Seed Yield” value (Williams soybeans; 0.0125 lb/acre, stage of application 3 (untreated 63.9)) of the same molecule?
**A.** 65.7 bu/acre

**Q.** And the “Seed Yield” value (Williams soybeans; 0.0250 lb/acre, stage of application 1 (untreated 63.9))?
**A.** 62.5 bu/acre

**Q.** What about the “Seed Yield” value (Williams soybeans; 0.0250 lb/acre, stage of application 2 (untreated 63.9)) of the same molecule?
**A.** 64.7 bu/acre

**Q.** And the “Seed Yield” value (Williams soybeans; 0.0250 lb/acre, stage of application 3 (untreated 63.9))?
**A.** 69.9 bu/acre

**Q.** And the “Seed Yield” value (Williams soybeans; 0.0375 lb/acre, stage of application 1 (untreated 63.9))?
**A.** 59.6 bu/acre

**Q.** What about the “Seed Yield” value (Williams soybeans; 0.0375 lb/acre, stage of application 2 (untreated 63.9)) of the same molecule?
**A.** 57.5 bu/acre

**Q.** What about the “Seed Yield” value (Williams soybeans; 0.0375 lb/acre, stage of application 3 (untreated 63.9)) of the same molecule?
**A.** 70.3 bu/acre

**Q.** And the “Seed Yield” value (Williams soybeans; 0.0500 lb/acre, stage of application 2 (untreated 63.9))?
**A.** 71.3 bu/acre

**Q.** What about the herbicidal rating (Panicum Spp.; 2 WAT, 1.12 kg/h) of the same molecule?
**A.** 0 (0-24)

**Q.** What about the herbicidal rating (Panicum Spp.; 4 WAT, 5.60 kg/h) of the same molecule?
**A.** 0 (0-24)

**Q.** And the herbicidal rating (Sorghum; 2 WAT, 1.12 kg/h)?
**A.** 0 (0-24)

**Q.** And the herbicidal rating (Sorghum; 4 WAT, 5.60 kg/h)?
**A.** 0 (0-24)

**Q.** And the herbicidal rating (Wheat; 2 WAT, 1.12 kg/h)?
**A.** 1 (25-49)

**Q.** What about the herbicidal rating (Wheat; 4 WAT, 5.60 kg/h) of the same molecule?
**A.** 0 (0-24)

**Q.** And the herbicidal rating (Hemp Sesbania; 2 WAT, 1.12 kg/h)?
**A.** 1 (25-49)

**Q.** What about the herbicidal rating (Hemp Sesbania; 4 WAT, 5.60 kg/h) of the same molecule?
**A.** 0 (0-24)

**Q.** What about the herbicidal rating (Crabgrass; 2 WAT, 1.12 kg/h) of the same molecule?
**A.** 0 (0-24)

**Q.** And the herbicidal rating (Crabgrass; 4 WAT, 5.60 kg/h)?
**A.** 0 (0-24)

**Q.** What about the herbicidal rating (Sugarbeet; 2 WAT, 1.12 kg/h) of the same molecule?
**A.** 0 (0-24)

**Q.** What about the herbicidal rating (Sugarbeet; 4 WAT, 5.60 kg/h) of the same molecule?
**A.** 1 (25-49)

**Q.** And the herbicidal rating (Rice; 2 WAT, 1.12 kg/h)?
**A.** 0 (0-24)

**Q.** And the herbicidal rating (Rice; 4 WAT, 5.60 kg/h)?
**A.** 0 (0-24)

**Q.** And the herbicidal rating (Wild Buckwheat; 2 WAT, 1.12 kg/h)?
**A.** 1 (25-49)

**Q.** What about the herbicidal rating (Wild Buckwheat; 4 WAT, 5.60 kg/h) of the same molecule?
**A.** 1 (25-49)

**Q.** And the herbicidal rating (Soybean; 2 WAT, 1.12 kg/h)?
**A.** 1 (25-49)

**Q.** What about the herbicidal rating (Soybean; 4 WAT, 5.60 kg/h) of the same molecule?
**A.** 1 (25-49)
